What was measured:
Experiment in all cases: relative viability (nuclei count vs DMSO), 5 days (fraction); higher = more cells survive
H3255 = system: H3255
Method in brief: (§1)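 Relative viability divides the nuclei count in treated wells by that in vehicle wells. Lung cancer cell lines were seeded in 1536-well plates, dosed by pin tool the next day, and fixed and stained after 5 days in one step with final 0.05% Triton X-100, 1% formaldehyde and 1 ug/ml Hoechst. Dosing was a single drug or a fixed anchor-drug dose plus five library-drug doses (not always all listed) in √10 steps, and values are medians of duplicate plates imaged at 4×.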

NCI-H596 = system: NCI-H596
Method in brief: as §1

UMC-11 = system: UMC-11
Method in brief: as §1

NCI-H322M = system: NCI-H322M
Method in brief: as §1

NCI-H838 = system: NCI-H838
Method in brief: as §1

NCI-H2087 = system: NCI-H2087
Method in brief: as §1

LCLC-97TM1 = system: LCLC-97TM1
Method in brief: as §1

BEN = system: BEN
Method in brief: as §1

NCI-H661 = system: NCI-H661
Method in brief: as §1

HCC-78 = system: HCC-78
Method in brief: as §1

PC-3 [JPC-3] = system: PC-3 [JPC-3]
Method in brief: as §1

SK-MES-1 = system: SK-MES-1
Method in brief: as §1

LK-2 = system: LK-2
Method in brief: as §1

NCI-H1944 = system: NCI-H1944
Method in brief: as §1

HCC-15 = system: HCC-15
Method in brief: as §1

LU99A = system: LU99A
Method in brief: as §1

NCI-H1651 = system: NCI-H1651
Method in brief: as §1

NCI-H358 = system: NCI-H358
Method in brief: as §1

LC-2-ad = system: LC-2-ad
Method in brief: as §1

LXF-289 = system: LXF-289
Method in brief: as §1

NCI-H1666 = system: NCI-H1666
Method in brief: as §1

NCI-H650 = system: NCI-H650
Method in brief: as §1

## COc1cc(N2CCC(C(N)=O)CC2)ccc1Nc1nc(N)c(Cl)c(Nc2ccccc2S(=O)(=O)C(C)C)n1 [HG-5-88-01] + C[C@]1(O)C[C@@H](c2nc(-c3ccc4ccc(-c5ccccc5)nc4c3)c3c(N)nccn32)C1 [Linsitinib] (partner 1 µM)
H3255; first compound 0.04 µM
  relative viability: 1.03
H3255; first compound 0.1265 µM
  relative viability: 0.913
H3255; first compound 0.4 µM
  relative viability: 0.939
H3255; first compound 4 µM
  relative viability: 0.734
NCI-H596; first compound 0.04 µM
  relative viability: 1
NCI-H596; first compound 0.1265 µM
  relative viability: 1.12
NCI-H596; first compound 0.4 µM
  relative viability: 1.2
NCI-H596; first compound 1.265 µM
  relative viability: 1.13
NCI-H596; first compound 4 µM
  relative viability: 1.17
UMC-11; first compound 0.04 µM
  relative viability: 1.03
UMC-11; first compound 0.1265 µM
  relative viability: 0.931
UMC-11; first compound 0.4 µM
  relative viability: 0.698
UMC-11; first compound 1.265 µM
  relative viability: 1.01
UMC-11; first compound 4 µM
  relative viability: 1.1
NCI-H322M; first compound 0.04 µM
  relative viability: 0.892
NCI-H322M; first compound 0.1265 µM
  relative viability: 0.922
NCI-H322M; first compound 0.4 µM
  relative viability: 1.01
NCI-H322M; first compound 1.265 µM
  relative viability: 0.657
NCI-H322M; first compound 4 µM
  relative viability: 0.858
NCI-H838; first compound 0.04 µM
  relative viability: 0.972
NCI-H838; first compound 0.1265 µM
  relative viability: 1.07
NCI-H838; first compound 0.4 µM
  relative viability: 0.885
NCI-H838; first compound 1.265 µM
  relative viability: 0.915
NCI-H838; first compound 4 µM
  relative viability: 0.956
NCI-H2087; first compound 0.04 µM
  relative viability: 0.85
NCI-H2087; first compound 0.1265 µM
  relative viability: 1.07
NCI-H2087; first compound 0.4 µM
  relative viability: 0.912
NCI-H2087; first compound 1.265 µM
  relative viability: 0.964
NCI-H2087; first compound 4 µM
  relative viability: 0.888
LCLC-97TM1; first compound 0.04 µM
  relative viability: 0.183
LCLC-97TM1; first compound 0.1265 µM
  relative viability: 0.201
LCLC-97TM1; first compound 0.4 µM
  relative viability: 0.18
LCLC-97TM1; first compound 1.265 µM
  relative viability: 0.152
LCLC-97TM1; first compound 4 µM
  relative viability: 0.158
BEN; first compound 0.04 µM
  relative viability: 0.817
BEN; first compound 0.1265 µM
  relative viability: 0.968
BEN; first compound 0.4 µM
  relative viability: 0.899
BEN; first compound 1.265 µM
  relative viability: 0.767
BEN; first compound 4 µM
  relative viability: 1.17
NCI-H661; first compound 0.04 µM
  relative viability: 0.586
NCI-H661; first compound 0.1265 µM
  relative viability: 0.624
NCI-H661; first compound 0.4 µM
  relative viability: 0.682
NCI-H661; first compound 4 µM
  relative viability: 0.669
HCC-78; first compound 0.04 µM
  relative viability: 0.574
HCC-78; first compound 0.1265 µM
  relative viability: 0.401
HCC-78; first compound 0.4 µM
  relative viability: 0.273
HCC-78; first compound 1.265 µM
  relative viability: 0.222
HCC-78; first compound 4 µM
  relative viability: 0.263
PC-3 [JPC-3]; first compound 0.04 µM
  relative viability: 0.964
PC-3 [JPC-3]; first compound 0.1265 µM
  relative viability: 0.956
PC-3 [JPC-3]; first compound 0.4 µM
  relative viability: 0.947
PC-3 [JPC-3]; first compound 1.265 µM
  relative viability: 0.944
PC-3 [JPC-3]; first compound 4 µM
  relative viability: 0.83
SK-MES-1; first compound 0.04 µM
  relative viability: 1.02
SK-MES-1; first compound 0.1265 µM
  relative viability: 1.03
SK-MES-1; first compound 0.4 µM
  relative viability: 1.08
SK-MES-1; first compound 1.265 µM
  relative viability: 1.04
SK-MES-1; first compound 4 µM
  relative viability: 1.14
LK-2; first compound 0.04 µM
  relative viability: 0.591
LK-2; first compound 0.1265 µM
  relative viability: 0.519
LK-2; first compound 0.4 µM
  relative viability: 0.634
LK-2; first compound 4 µM
  relative viability: 0.768
NCI-H1944; first compound 0.04 µM
  relative viability: 1.14
NCI-H1944; first compound 0.1265 µM
  relative viability: 1.19
NCI-H1944; first compound 0.4 µM
  relative viability: 1.19
NCI-H1944; first compound 1.265 µM
  relative viability: 0.803
NCI-H1944; first compound 4 µM
  relative viability: 1.31
HCC-15; first compound 0.04 µM
  relative viability: 0.862
HCC-15; first compound 0.1265 µM
  relative viability: 0.837
HCC-15; first compound 0.4 µM
  relative viability: 0.92
HCC-15; first compound 1.265 µM
  relative viability: 0.835
HCC-15; first compound 4 µM
  relative viability: 0.763
LU99A; first compound 0.04 µM
  relative viability: 0.552
LU99A; first compound 0.1265 µM
  relative viability: 0.535
LU99A; first compound 0.4 µM
  relative viability: 0.531
LU99A; first compound 1.265 µM
  relative viability: 0.578
LU99A; first compound 4 µM
  relative viability: 0.589
NCI-H1651; first compound 0.04 µM
  relative viability: 1.02
NCI-H1651; first compound 0.1265 µM
  relative viability: 1.09
NCI-H1651; first compound 0.4 µM
  relative viability: 0.991
NCI-H1651; first compound 1.265 µM
  relative viability: 1.07
NCI-H1651; first compound 4 µM
  relative viability: 1.19
NCI-H358; first compound 0.04 µM
  relative viability: 0.696
NCI-H358; first compound 0.1265 µM
  relative viability: 0.707
NCI-H358; first compound 0.4 µM
  relative viability: 0.625
NCI-H358; first compound 1.265 µM
  relative viability: 0.484
NCI-H358; first compound 4 µM
  relative viability: 0.387
LC-2-ad; first compound 0.04 µM
  relative viability: 0.817
LC-2-ad; first compound 0.1265 µM
  relative viability: 0.861
LC-2-ad; first compound 0.4 µM
  relative viability: 0.862
LC-2-ad; first compound 1.265 µM
  relative viability: 0.852
LC-2-ad; first compound 4 µM
  relative viability: 0.92
LXF-289; first compound 0.04 µM
  relative viability: 0.94
LXF-289; first compound 0.1265 µM
  relative viability: 1
LXF-289; first compound 0.4 µM
  relative viability: 0.961
LXF-289; first compound 1.265 µM
  relative viability: 0.973
LXF-289; first compound 4 µM
  relative viability: 1.04
NCI-H1666; first compound 0.04 µM
  relative viability: 0.958
NCI-H1666; first compound 0.1265 µM
  relative viability: 0.882
NCI-H1666; first compound 0.4 µM
  relative viability: 0.93
NCI-H1666; first compound 1.265 µM
  relative viability: 0.76
NCI-H1666; first compound 4 µM
  relative viability: 0.581
NCI-H650; first compound 0.04 µM
  relative viability: 1.01
NCI-H650; first compound 0.1265 µM
  relative viability: 0.985
NCI-H650; first compound 0.4 µM
  relative viability: 0.835
NCI-H650; first compound 1.265 µM
  relative viability: 0.936
NCI-H650; first compound 4 µM
  relative viability: 0.492
